System: myasthenogenic antibody mAB 198
Experiment: Peptide microarray mimotope screen, binding of mAB 198 to linear and cyclic peptides (fluorescence readout)
Design: species or system rat
Conditions: cyclic mimotopes; binding of mAB 198, relative fluorescent signal after normalization against background
Excerpt: A custom peptide array of 30000 peptides was synthesized, with peptides of 7-19 amino acids in size; the peptides were based on substitution analyses of 176 AChR-MIR peptides with exchanges of each amino acid positions by each of the 20 common amino acids. Peptides were synthesized directly on a microarray, and screened with monoclonal antibody mAB 198 in order to obtain mimotopes with a binding strength which was improved over the human AChR alpha chain MIR-containing sequence […] (Tzartos et al, 1991; Luo et al, 2009) and over a previously published mimotope sequence ([…]), that was derived from Torpedo AchR with the help of antibody mAB 132A (Trinh et al, 2014). In particular, the wild type AChR-MIR sequence is known to structurally mimic to a certain extent the epitope recognized by myasthenogenic, unwanted and disease-causing antibodies from patients. The mimotope peptide library was designed by permutation of each single amino acid position of these two sequences with all natural amino acids in order to provide a maximally diversified collection of peptide variants. All peptides were synthesized in doublets as linear and as cyclic peptides. The aim was to obtain peptides (mimotopes) that mimic the natural epitope of myasthenogenic antibodies.
For the mimotope screen, the antibody mAB 198 (Absolute Antibody Ltd, UK) was used. This is a prototype antibody that was generated in rats using human AChR (Tzartos et al, 1983; Asher et al, 1993). […] Therefore, mAB198 was used as a surrogate probe to screen for new mimotopes that are capable of mimicking the corresponding AChR-MIR epitope or portions of the epitope.
As a readout, binding of mAB 198 to the 30000 linear and cyclic peptides was measured by fluorescence readout, and peptides were ranked according to their relative fluorescent signal after normalization against the background.
The top-ranked 100 linear and cyclic mimotopes are listed in Table 1 and Table 2 above, respectively.

Row | Molecule | relative signal [%]
1 | 102 (RLRVNPADY) [compound 102] | 61.3%
2 | 101 (VRLRWNPADYP) [compound 101] | 100.0%
3 | 106 (RFNPADY) [compound 106] | 37.5%

The next lines start with the values.

Row | relative signal [%] | Molecule
4 | 12.5% | 152 (GGGSLRRNPAD) [compound 152]
5 | 20.2% | 134 (RYNPADY) [compound 134]
6 | 10.5% | 167 (DVRLRWNPSDY) [compound 167]
7 | 28.0% | 114 (SLRINPADY) [compound 114]
8 | 12.1% | 157 (GSLRINPADYG) [compound 157]
9 | 8.9% | 193 (LRWNPADYPGI) [compound 193]
10 | 10.3% | 171 (GGSLRWNPADR) [compound 171]
11 | 24.5% | 122 (RLRYNPADY) [compound 122]
12 | 21.8% | 130 (SLRLNPADY) [compound 130]
13 | 10.5% | 168 (VRLRWNPADYS) [compound 168]
14 | 12.2% | 156 (RANPADY) [compound 156]
15 | 21.3% | 132 (RLRFNPADY) [compound 132]
16 | 11.0% | 163 (RWNPADR) [compound 163]
17 | 28.6% | 112 (LRLNPADYG) [compound 112]
18 | 25.0% | 120 (DVRLRGNPADY) [compound 120]
19 | 24.9% | 121 (WNPADYR) [compound 121]
20 | 15.4% | 141 (SLRGNPADY) [compound 141]
21 | 25.4% | 119 (GGSLRINPADY) [compound 119]
22 | 8.7% | 196 (GSLRWNPADYT) [compound 196]
23 | 21.3% | 131 (DVRLRPNPADY) [compound 131]
24 | 10.3% | 173 (LRWNPADYGGF) [compound 173]
25 | 11.5% | 161 (GGSLRYNPADY) [compound 161]
26 | 21.1% | 133 (WNPADYP) [compound 133]
27 | 13.4% | 148 (VRLRVNPADYG) [compound 148]
28 | 22.5% | 128 (GGSLRVNPADY) [compound 128]

Row | relative signal [%] | Molecule
29 | 19.5% | 136 (NPADYGR) [compound 136]
30 | 10.1% | 175 (RLRWNPADYHG) [compound 175]
31 | 11.9% | 158 (RPNPADYGG) [compound 158]
32 | 8.7% | 197 (NPADYGN) [compound 197]
33 | 15.8% | 139 (NPADYGH) [compound 139]
34 | 9.1% | 189 (LRGNPAD) [compound 189]
35 | 25.5% | 118 (RLRINPADY) [compound 118]
36 | 23.8% | 123 (RGNPADY) [compound 123]
37 | 16.2% | 138 (GSLRWNPADYR) [compound 138]
38 | 13.6% | 147 (SLRFNPADY) [compound 147]
39 | 23.4% | 125 (LRRNPADYG) [compound 125]
40 | 13.1% | 149 (LRWNPADYP) [compound 149]
41 | 12.5% | 151 (VNPADYG) [compound 151]
42 | 12.4% | 153 (RPRWNPADY) [compound 153]
43 | 10.0% | 176 (RLRWNPADYGP) [compound 176]
44 | 22.8% | 127 (LRINPADYG) [compound 127]
45 | 10.0% | 178 (VRLRINPADYG) [compound 178]
46 | 10.8% | 164 (RLHWNPADY) [compound 164]
47 | 27.7% | 115 (DVRLRFNPADY) [compound 115]
48 | 9.7% | 187 (VRLRLNPADYG) [compound 187]
49 | 15.6% | 140 (RPNPADY) [compound 140]
50 | 9.7% | 184 (RLLWNPADY) [compound 184]
51 | 9.9% | 181 (VRLRGNPAD) [compound 181]
52 | 9.9% | 180 (TLRWNPADY) [compound 180]
53 | 10.2% | 174 (GSLRWNPADYD) [compound 174]

Same assay, conditions: linear mimotopes; binding of mAB 198, relative fluorescent signal after normalization against background

Row | relative signal [%] | Molecule
54 | 6.7% | 89 (SLRVNPADY) [compound 89]
55 | 59.3% | 3 (NPADYHG) [compound 3]
56 | 12.2% | 45 (NPADYGR) [compound 45]
57 | 13.7% | 35 (YNLKFNP) [compound 35]
58 | 8.3% | 70 (YNLKYNP) [compound 70]
59 | 9.0% | 64 (WRLRWNPAD) [compound 64]
60 | 9.5% | 58 (RPNPADY) [compound 58]
61 | 11.4% | 47 (WNPDDYR) [compound 47]
62 | 7.2% | 80 (RTNPADY) [compound 80]
63 | 13.0% | 38 (RGNPADYGG) [compound 38]
64 | 37.1% | 7 (LRFNPAD) [compound 7]
65 | 6.5% | 95 (SLRFNPADY) [compound 95]
66 | 12.2% | 43 (IDVRLRYNP) [compound 43]
67 | 19.8% | 22 (NPADYPG) [compound 22]
68 | 8.5% | 69 (DVRLRINPADY) [compound 69]
69 | 6.1% | 98 (VDCNLKYNP) [compound 98]
70 | 21.6% | 16 (GSLRFNP) [compound 16]
71 | 25.2% | 13 (LRLNPAD) [compound 13]
72 | 20.1% | 21 (QWIDVRLRFNP) [compound 21]
73 | 17.7% | 24 (RLNPADY) [compound 24]
74 | 6.7% | 90 (CNLKYNP) [compound 90]
75 | 14.1% | 33 (NPADYGD) [compound 33]
76 | 6.4% | 96 (QWVDCNLKFNP) [compound 96]
77 | 7.6% | 76 (VPLRWNPAD) [compound 76]
78 | 21.2% | 18 (NPADYGY) [compound 18]
79 | 8.9% | 66 (RHNPADY) [compound 66]

Row | relative signal [%] | Molecule
80 | 9.3% | 62 (GSLRFNPAD) [compound 62]
81 | 12.4% | 42 (RLRWNPADYHG) [compound 42]
82 | 11.0% | 48 (CNLKFNP) [compound 48]
83 | 9.4% | 61 (RWNPADYGH) [compound 61]
84 | 9.2% | 63 (LRINPAD) [compound 63]
85 | 8.9% | 65 (GNPADYGGI) [compound 65]
86 | 10.6% | 52 (GGGSLRRNPAD) [compound 52]
87 | 56.7% | 4 (VRLRWNPADYP) [compound 4]
88 | 26.3% | 12 (VRLRYNP) [compound 12]
89 | 11.0% | 49 (SLRINPADY) [compound 49]
90 | 8.1% | 72 (VRHRWNPAD) [compound 72]
91 | 7.6% | 78 (VDYNLKFNP) [compound 78]
92 | 31.6% | 9 (LRVNPADYG) [compound 9]
93 | 11.0% | 50 (RLYWNPADY) [compound 50]
94 | 6.5% | 92 (NPADYGN) [compound 92]
95 | 15.0% | 31 (IDVRLRFNP) [compound 31]
96 | 10.6% | 53 (LRWNPADYGGF) [compound 53]
97 | 20.5% | 19 (WNPADYP) [compound 19]
98 | 21.8% | 15 (RFNPADY) [compound 15]
99 | 8.6% | 68 (RPNPADYGG) [compound 68]
100 | 71.4% | 2 (NPADYRG) [compound 2]
101 | 7.7% | 75 (NPDDYGH) [compound 75]
102 | 16.5% | 27 (RYNPADY) [compound 27]
103 | 6.1% | 97 (LRPNPADYG) [compound 97]
104 | 6.0% | 99 (ALRWNPADY) [compound 99]
105 | 6.8% | 87 (RIRWNPADY) [compound 87]

Target: monoclonal antibody mAB 198
Experiment: peptide microarray, fluorescence, linear peptide
Conditions: not given

Row | relative signal [%] | Molecule
106 | 27.1% | VRLRFNP [VRLRFNP, linear mimotope]
107 | 100% | LRRNPAD [LRRNPAD, linear mimotope]
108 | 26.3% | VRLRYNP [VRLRYNP, linear mimotope]
109 | 28.3% | LRRNPADYG […, linear mimotope]
110 | 6% | NPADYGV [NPADYGV, linear mimotope]

Source: patent publication US20230381328A1, “COMPOUND FOR THE PREVENTION OR TREATMENT OF MYASTHENIA GRAVIS” (ABLEVIA BIOTECH GMBH, priority 2020, published 2023)
